Assays:
[1] = tested on: A2780 ovarian carcinoma cell line; assay: MTT assay, inhibition of cell viability; type: cell-based; settings: for IC50: A2780 ovarian carcinoma cell line, 72 hours of incubation, MTT assay; for cytotoxic activity (in words): A2780, statement drawn from Table 1
Method: (§1) The effects of the clusters on the cancer cell growth were evaluated after an exposure period of 72 hours using the MTT [3-(4,5-dimethylthiazol-2-yl)-2,5-diphenyltetrazolium bromide] assay which measures mitochondrial dehydrogenase activity as an indication of cell viability. In addition, the dose-response curves for 1a and 1b against the two cell lines are illustrated in Figures 2a and 2b. Table 1. Inhibition of cell viability (IC50) of complexes on A2780 and A2780cisR ovarian carcinoma cell lines after 72 hours of incubation, determined using MTT assay.

[2] = tested on: A2780cisR ovarian carcinoma cell line; assay: MTT assay, inhibition of cell viability; type: cell-based; settings: for IC50: cisplatin-resistant A2780cisR ovarian carcinoma cell line, 72 hours of incubation, MTT assay; for cytotoxic activity (in words): A2780cisR, statement drawn from Table 1
Method: as §1

Compound | IC50 [1] | increase in cisplatin resistance ([2]; A2780cisR versus A2780) | IC50 [2] | cytotoxic activity (in words) [1] | cytotoxic activity (in words) [2]
N.N.[Cl][Pt][Cl] [Cisplatin, reference compound] | 1.5 ± 0.3 µM | 6 fold | 8.7 ± 1.6 µM | – | –
[(η^6-C6H6)(η^6-C6Me6)2Ru3(µ-H)3(µ3-O)][BF4] [Compound 1a] | 9.8 ± 0.2 µM | – | 14.6 ± 0.7 µM | remarkably active | remarkably active
[(η^6-C6H6)4Ru4(µ-H)3(µ-OH)][Cl]2 [Compound 2c] | > 100 µM | – | > 100 µM | – | –
[(η^6-C6H5Me)4Ru4(µ-H)4][BF4]2 [Compound 2b] | > 100 µM | – | > 100 µM | – | –
[(η^6-C6H6)(η^6-1,4-^iPrC6H4Me)(η^6-C6Me6)Ru3(µ-H)3(µ3-O)][BF4] [Compound 1b] | 9.1 ± 0.9 µM | – | 28.9 ± 2.8 µM | remarkably active | remarkably active
Cc1ccc(C(C)C)cc1.[Cl][Ru]([Cl])[PH]12CN3CN(CN(C3)C1)C2 [RAPTA-C, reference compound] | > 100 µM | – | > 100 µM | – | –
[(η^6-C6H6)4Ru4(µ-H)4][BF4]2 [Compound 2a] | > 100 µM | – | > 100 µM | – | –
